Values quoted from earlier work as cited in patent EP1112064B1, “METHOD FOR PREPARING NOVEL FENOFIBRATE GALENIC FORMULATIONS, GALENIC FORMULATIONS OBTAINED AND APPLICATIONS” (CLL Pharma, Arenas, priority 1998, dated 2000).

**Q.** What does the source list for CC(C)OC(=O)C(C)(C)Oc1ccc(C(=O)c2ccc(Cl)cc2)cc1 [fénofibrate, 2-(4-(4-chlorobenzoyl)-phénoxy)-2-méthyl propionate d'isopropyle]?
**A.** résorption intestinale (administered in sunflower oil): presque complète; demi-vie d'élimination (in vivo): ~20 heures; dose de fénofibrate administrée résorbée (one 300 mg capsule during a meal, reaches the blood as fenofibric acid): 60%
